Laboratory results as given in PMC11768481 (Pharmaceuticals, 2024).
Read-outs that look alike come from different tables or passages of the source.

Key:
[1] = tested on: T. cruzi Querétaro strain trypomastigotes; assay: In vitro infection of HFF-1 monolayers with trypomastigotes; release of trypomastigotes on the 5th day; type: cell-based; settings: Trypanosoma cruzi; for IC50: HFF-1, monotherapy, release of trypomastigotes, Queretaro strain, 5th day, read-out: IC50 Monotherapy T. cruzi i.v. Infection
Description: To evaluate the effects of the antidiabetics alone, a model of in vitro infection with trypomastigotes of monolayers of human foreskin fibroblasts 1 (HFF-1) was used as described in the methodology; the criterium to determine efficacy was the ability to decrease the trypomastigotes’ release after the 4th–5th day post-infection. The T. cruzi Querétaro strain (TBAR/MX/0000/Querétaro) was used, which is classified in the Tc1 group, and is characterized by its high degree of virulence.
In 24-well tissue culture plates, 2 × 10^4 HFF-1 cells in 0.5 mL of DMEM + 10% FBS were deposited in each well and incubated at 37 °C for 24 h for adherence. Next, the incubation medium was changed to DMEM + 2% FBS (0.5 mL), and 3 × 10^5 trypomastigotes were added to infect cells for 2 h at 37 °C. After the incubation, the cells were vigorously washed three times with DMEM + 2% FBS to remove uninternalized trypomastigotes, taking care to preserve the monolayer integrity. Then, the infected cells were incubated in DMEM + 2% FBS for 4–5 days in the absence or presence of BNZ (0, 0.05, 0.1, 0.2, 0.5 µM) and antidiabetics (0, 1, 10, 25, 50 µM) in monotherapy; the drug compounds were purchased from SIGMA. For bi-therapy, the same concentrations of BNZ were used in the presence of 0.5 or 1 µM of antidiabetics. […] In every independent assay, a control of infected cells without BNZ or antidiabetics was always included, which served as no treatment. The number of released mobile trypomastigotes on the 5th day was determined by light microscopy using a Neubauer chamber.
(§1) For the IC50 calculation, individual data curves were fitted to the dose–response equation: y=A1+(A2−A1)/(1+10^(logx0−x)×p), where A1 < A2; p > 0; bottom asymptote: A1 = 1; top asymptote: A2 = 2; center: logx0 = −1; hill slope: p = 0.2; or logistic equation y=A2+(A1−A2)/(1+x/x0)^p, where A1 = initial value, A2 = final value, x0 = center and p = power using the Origin 8 Software. The IC50 values were manually selected from the curves fit.

HFF-1 cells = assay: HFF-1 host cell growth after 5 days (Trypan blue exclusion count); type: cell-based, human; settings: for IC50: Homo sapiens, HFF-1, 120 h, monotherapy, HFF-1 growth, 5 days, read-out: IC50 Monotherapy HFF-1 (n = 3)
Protocol: For HFF-1 IC50 evaluation, BNZ and the antidiabetic were varied as described above for the infection cultures, and cell proliferation was determined on the 5th day of growth, and the viability was determined by 0.2% Trypan blue exclusion (Corning Inc.; Corning, NY, USA). Briefly, the cells were washed twice with PBS-EDTA and later trypsinized for detachment. The cell suspension was homogenized with 150 µL of DMEM + 2% FBS, and an aliquot of 50 µL was diluted 1:1 with the solution of Trypan blue. The number of viable cells was counted using a Neubauer chamber under a microscope.
as §1

T. cruzi Ninoa strain = assay: Short-term monotherapy in mice infected with T. cruzi; blood trypomastigote count; type: in vivo, CD1 mice; settings: single dose 100 mg/kg, intragastric, at peak of parasitemia, 8 h compared to time 0
Protocol: The effect of the antidiabetic drugs and BNZ in the clearance of blood trypomastigotes in mice infected with T. cruzi in acute drug treatment in monotherapy was evaluated. Trypanosoma cruzi Ninoa strain was used for these experiments; this strain is classified in the Tc1 group like the Querétaro strain [27]; Ninoa is characterized by lower virulence and therefore lower mortality in mice compared to the Querétaro strain [28]. However, epimastigotes of Ninoa strain are more resistant to BNZ [27]. Then, the T. cruzi Ninoa strain seems to be a more appropriate parasitic source to evaluate drug susceptibility in mice.
Mice of the CD1 strain were infected with Ninoa strain (MHOM/MX/1994/Ninoa) following modified protocols previously reported. Briefly, blood trypomastigotes obtained from an infected mouse were diluted with 0.9% saline solution at a density of 1 × 10^5 trypomastigotes/mL, and 0.1 mL were intraperitoneally inoculated in mice weighing 30–40 g. […] After reaching a parasitemia peak of 22 × 10^6 blood trypomastigotes/mL (12–18 days post-inoculation), the mice were separated into 5 groups of 3 mice each for drug treatment (for bioethical requirements, the number of animals used was kept at a minimum, and 3 mice per group was sufficient to perform statistical analysis). BNZ and antidiabetic drugs at a concentration of 100 mg/kg weight; doses of 3.16–3.79 mg (depending on the weight of the mice) were administered, diluted in 0.5 mL of vehicle (Arabic gum at 4%, diluted in purified water) using an intragastric tube. Then, 5 µL of blood were immediately extracted from the caudal vein (t = 0), and blood sampling was performed every 2 h up to 8 h. Trypomastigotes were counted using a modified protocol of that reported by Pizzi–Brenner, as reported before. […] The criterion for evaluating efficacy was the percentage of trypanocidal effect at 8 h compared to time 0.

[2] = tested on: T. cruzi Querétaro strain epimastigotes; assay: Thiol metabolites (Cys, GSH, T(SH)2) in epimastigotes by HPLC; type: cell-based, Trypanosoma cruzi; settings: 1 µM drug alone, 24 h
Protocol: Since thiol metabolite determination requires high amounts of biological material, the thiol determination content was performed in epimastigotes of the Queretaro strain. A 0.2 L culture of LIT medium was inoculated with epimastigotes at a density of 0.7 × 10^6 parasites/mL. The culture was incubated for 72 h at 28 °C, reaching, at the exponential growth phase, a concentration of 3 × 10^6 parasites/mL. The culture was separated into 8 aliquots of 25 mL, and 1 µM BNZ was added alone or in combination with 1 µM of the antidiabetic drugs. The cultures were incubated for 24 h at 28 °C. Subsequently, 1 mL of each sample was separated for protein determination, and the rest was used for thiol determination. Both samples were centrifuged at 20,817× g for 10 min; the pellets were washed twice with PBS. The pellets for protein were resuspended in 100 µL of Lowry’s solution A (2% Na2CO3, 0.4% NaOH, 0.16% Na-K tartrate, 1% SDS) and stored at −70 °C until protein determination using the Lowry method. The parasite pellets for thiol metabolite determination were immediately lysed by incubation in liquid nitrogen and stored at −70 °C.
Thiol determination was performed as described before. Cell lysates were thawed and resuspended in 90 µL of lysis buffer (20 mM Hepes, 1 mM EDTA, 0.15 mM KCl at pH 7), 20 mM DTT was added to each sample, and three cycles of freezing in liquid nitrogen and thawing at 37 °C were performed. The samples were centrifuged at 20,817× g for 10 min, and the supernatant was reduced with 2% sodium borohydride (NaBH4) and incubated for 10 min on ice. Then, perchloric acid was added at a final concentration of 3%, and the sample was centrifuged at 20,187× g for 2 min. The supernatant was filtered through a syringe-driven filter unit (0.45 µm) (Millipore; Carrigtwohill, County Cork, Ireland) and 20 µL of the eluate was injected in a high-performance liquid chromatography (HPLC) apparatus (Waters; Milford, MA, USA). The metabolites were separated in a C18 reverse-phase column (Altima, Columbia, MD, USA) using a mixture of acetonitrile—0.1% trifluoroacetic acid and a flux of 0.5 mL/min. The thiol metabolites were post-column derivatized with 0.1 mM di-thio-bis nitrobenzoic acid (DTNB), and the absorbance was detected at 412 nm with a UV-Vis detector coupled to the HPLC apparatus.

T. cruzi epimastigotes = settings: cited from earlier work
[3] = set-up: method as in PMID 28673423, PMID 32592664, PMID 33043726; settings: ref 1, 7, 8; cited from earlier work
Leishmania = settings: alone; cited from earlier work
[4] = tested on: Leishmania donovani promastigotes; set-up: method as in PMID 30827222; settings: ref 23; cited from earlier work
Echinococcus granulosus = tested on: Echinococcus granulosus; set-up: method as in PMID 29190739; settings: monotherapy; cited from earlier work
[5] = ref 15, read-out: IC50 on the growth of epimastigotes

Row | Structure (SMILES) | IC50 [1] [µM] | inhibition at 0.2 µM ([1]; HFF-1, read-out: inhibition of infection) [%] | decrease of the growth of host cells (HFF-1 cells; 0.26 µM BNZ in monotherapy) [%] | IC50 (HFF-1 cells) [µM] | decrease of the infection (blood trypomastigotes) (T. cruzi Ninoa strain) | Cys level [2] | T(SH)2 level [2] | IC50 (T. cruzi epimastigotes; CLBrener strain, read-out: IC50 on growth of epimastigotes) [µM] | IC50 (T. cruzi epimastigotes; Ninoa strain, read-out: IC50 on growth of epimastigotes) [µM] | IC50 (T. cruzi epimastigotes; Querétaro strain, read-out: IC50 on growth of epimastigotes) [µM] | IC50 (T. cruzi epimastigotes; ref 25, read-out: IC50 on the growth of epimastigotes) [µM] | IC50 (T. cruzi epimastigotes; ref 38, read-out: IC50 on the growth of epimastigotes) [µM] | rate of treatment interruption [3] | GSH level [2] | IC50 (T. cruzi epimastigotes; [5]) [µM] | effect on Leishmania infection (Leishmania) | growth of Leishmania donovani promastigotes [4] | activity on Echinococcus granulosus infection in mice (Echinococcus granulosus) | decrease in Cys [2] [%]
1 | O=C(Cn1ccnc1[N+](=O)[O-])NCc1ccccc1 [BNZ, benznidazole] | 0.26 ± 0.01 | 40 | 20 | 0.9 ± 0.09 | 80% | slightly decrease | not observed | 5.54 | 8.21 | 4.29 | 12 ± 2 | 9.4 ± 1.3 | 9–29% |  |  |  |  |  | 
2 | CC1CS(=O)(=O)CCN1/N=C/c1ccc([N+](=O)[O-])o1 (stereo not drawn) [nifurtimox] |  |  |  |  |  |  |  |  |  |  |  |  | 14–75% |  |  |  |  |  | 

The next lines start with results.

Row | IC50 [1] [µM] | Structure (SMILES) | inhibition at 0.2 µM ([1]; HFF-1, read-out: inhibition of infection) [%] | decrease of the growth of host cells (HFF-1 cells; 0.26 µM BNZ in monotherapy) [%] | IC50 (HFF-1 cells) [µM] | decrease of the infection (blood trypomastigotes) (T. cruzi Ninoa strain) | Cys level [2] | T(SH)2 level [2] | IC50 (T. cruzi epimastigotes; CLBrener strain, read-out: IC50 on growth of epimastigotes) [µM] | IC50 (T. cruzi epimastigotes; Ninoa strain, read-out: IC50 on growth of epimastigotes) [µM] | IC50 (T. cruzi epimastigotes; Querétaro strain, read-out: IC50 on growth of epimastigotes) [µM] | IC50 (T. cruzi epimastigotes; ref 25, read-out: IC50 on the growth of epimastigotes) [µM] | IC50 (T. cruzi epimastigotes; ref 38, read-out: IC50 on the growth of epimastigotes) [µM] | rate of treatment interruption [3] | GSH level [2] | IC50 (T. cruzi epimastigotes; [5]) [µM] | effect on Leishmania infection (Leishmania) | growth of Leishmania donovani promastigotes [4] | activity on Echinococcus granulosus infection in mice (Echinococcus granulosus) | decrease in Cys [2] [%]
3 | 8.4 ± 6.3 | COc1ccc(Cl)cc1C(=O)NCCc1ccc(S(=O)(=O)NC(=O)NC2CCCCC2)cc1 [GBD, glyburide] |  |  |  | 60% | increased | decreased |  |  |  |  |  |  | decreased | 66 | decreased the infection | decreased their growth | anti-helmintic activity | 
4 | 7.6 ± 2 | COc1ccc2c(c1)C(=O)N(CCc1ccc(S(=O)(=O)NC(=O)NC3CCCCC3)cc1)C(=O)C2(C)C [GLQ, gliquidone] |  |  |  | lower effect than BNZ | increased | decreased |  |  |  |  |  |  | decreased | 12 |  |  |  | 
5 | 14.3 ± 7 | Cc1cnc(C(=O)NCCc2ccc(S(=O)(=O)NC(=O)NC3CCCCC3)cc2)cn1 [GPZ, glipizide] |  |  | 35 ± 19 | 60% | decreased | increased |  |  |  |  |  |  |  | 13.4 |  |  |  | ~50
